Test results taken from patent US20070049518A1, “Novel method of treatment of inflammatory skin conditions” (priority 2005, published 2007).

Key:
[1] = target: T1, purified aureolysin type I (Staphylococcus aureus, UniProt P81177); assay: biochemical
T1 construct: purchased BioCentrum Ltd

human MMP-1 = target: T2, human MMP-1 (Homo sapiens, UniProt P03956); assay: MMP enzyme inhibition assay, MMP-1; assay type: biochemical; settings: pH 7.5, 37° C., 1 hour
T2 construct: purchased Calbiochem
T2 sequence (P03956 100-469): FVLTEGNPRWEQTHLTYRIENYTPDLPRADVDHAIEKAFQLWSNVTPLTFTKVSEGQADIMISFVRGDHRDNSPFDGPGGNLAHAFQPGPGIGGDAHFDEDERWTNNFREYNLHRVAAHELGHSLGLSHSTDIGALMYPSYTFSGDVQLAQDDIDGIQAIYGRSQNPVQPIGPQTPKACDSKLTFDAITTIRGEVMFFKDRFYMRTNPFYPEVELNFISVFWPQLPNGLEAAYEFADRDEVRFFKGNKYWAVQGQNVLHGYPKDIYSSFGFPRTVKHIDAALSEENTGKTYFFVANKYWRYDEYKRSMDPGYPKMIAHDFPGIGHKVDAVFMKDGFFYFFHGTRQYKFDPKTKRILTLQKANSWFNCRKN

human MMP-2 = target: T3, human MMP-2 (Homo sapiens, UniProt P08253); assay: MMP enzyme inhibition assay, MMP-2; assay type: biochemical; settings: pH 7.5, 37° C., 1 hour
T3 construct: purchased Calbiochem
T3 sequence (P08253 110-660): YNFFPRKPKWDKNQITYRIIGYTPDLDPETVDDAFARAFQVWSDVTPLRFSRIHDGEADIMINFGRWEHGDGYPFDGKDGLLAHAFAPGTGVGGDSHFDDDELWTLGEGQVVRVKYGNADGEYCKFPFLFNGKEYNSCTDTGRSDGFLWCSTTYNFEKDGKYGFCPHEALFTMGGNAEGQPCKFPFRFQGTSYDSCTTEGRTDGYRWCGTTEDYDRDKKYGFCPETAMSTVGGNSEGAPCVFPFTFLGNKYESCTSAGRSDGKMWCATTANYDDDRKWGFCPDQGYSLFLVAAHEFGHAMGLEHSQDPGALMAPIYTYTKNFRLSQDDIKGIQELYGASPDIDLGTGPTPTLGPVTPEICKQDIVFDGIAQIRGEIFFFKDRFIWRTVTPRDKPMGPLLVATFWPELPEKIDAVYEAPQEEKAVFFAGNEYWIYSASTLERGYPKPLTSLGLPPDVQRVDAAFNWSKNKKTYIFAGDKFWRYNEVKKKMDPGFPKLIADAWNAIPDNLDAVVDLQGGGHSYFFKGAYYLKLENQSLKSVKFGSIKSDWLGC

human MMP-9 = target: T4, human MMP-9 (Homo sapiens, UniProt P14780); assay: MMP enzyme inhibition assay, MMP-9; assay type: biochemical; settings: pH 7.5, 37° C., 1 hour
T4 construct: purchased Calbiochem
T4 sequence (P14780 94-707): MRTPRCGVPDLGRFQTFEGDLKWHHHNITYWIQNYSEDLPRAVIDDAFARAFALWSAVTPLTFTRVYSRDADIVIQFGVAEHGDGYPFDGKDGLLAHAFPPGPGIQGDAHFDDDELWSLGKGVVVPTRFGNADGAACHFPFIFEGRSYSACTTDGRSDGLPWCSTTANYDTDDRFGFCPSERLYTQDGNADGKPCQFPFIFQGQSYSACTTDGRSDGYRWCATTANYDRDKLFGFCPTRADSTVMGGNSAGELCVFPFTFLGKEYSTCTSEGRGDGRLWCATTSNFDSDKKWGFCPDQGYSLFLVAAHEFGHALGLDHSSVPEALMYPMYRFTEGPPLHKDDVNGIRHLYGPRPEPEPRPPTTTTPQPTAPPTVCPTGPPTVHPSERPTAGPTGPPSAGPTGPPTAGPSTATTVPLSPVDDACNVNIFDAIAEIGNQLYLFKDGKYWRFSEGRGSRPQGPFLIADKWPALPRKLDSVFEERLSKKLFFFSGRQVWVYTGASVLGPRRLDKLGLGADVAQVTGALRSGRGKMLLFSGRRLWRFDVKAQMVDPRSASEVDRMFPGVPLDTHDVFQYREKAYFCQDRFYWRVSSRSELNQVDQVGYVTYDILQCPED

[2] = target: T5, metalloprotease (aureolysin) activity in Staphylococcus aureus 8325-4 culture supernatants (Staphylococcus aureus, UniProt P81177); assay: Metalloprotease activity in S. aureus culture supernatants; assay type: biochemical
T5 construct: 4 μl S. aureus culture supernatant; endogenous in cells; host or cells: Staphylococcus aureus 8325-4 (culture supernatant)
T5 sequence (P81177 209-509): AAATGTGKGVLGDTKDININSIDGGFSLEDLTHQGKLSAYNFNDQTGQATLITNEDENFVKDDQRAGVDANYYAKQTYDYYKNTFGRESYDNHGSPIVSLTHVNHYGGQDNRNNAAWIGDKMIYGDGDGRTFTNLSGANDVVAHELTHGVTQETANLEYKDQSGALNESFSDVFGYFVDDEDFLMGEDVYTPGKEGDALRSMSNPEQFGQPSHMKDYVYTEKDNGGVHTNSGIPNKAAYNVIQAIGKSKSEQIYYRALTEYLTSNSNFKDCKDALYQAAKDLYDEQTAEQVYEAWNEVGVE
Method: The culture was then centrifuged to remove the cells and the supernatant stored at −70° C. for subsequent use. […] Activity was expressed as the rate of increase in fluorescence as a function of time.

S. aureus 8325-4 = assay: S. aureus viability, viable cell counts; assay type: cell-based, Staphylococcus aureus; settings: 50 μM compound; 16 h at 37° C.
Method: Brain heart infusion medium (5 ml; Becton Dickinson and Co.) containing 10% skimmed milk and 1% (v/v) DMSO vehicle ±50 μM compound was inoculated with S. aureus 8325-4 (approximately 10^7 cells in tryptic soy broth) and incubated for 16 h at 37° C./220 rpm. Duplicate samples (0.1 ml) were then removed from each culture, diluted into PBS, spread onto brain heart infusion agar (1.5%) and incubated at 37° C.

recombinant human ADAM17 = target: T6, recombinant human ADAM17 (Homo sapiens, UniProt P78536); assay: Selectivity profile, ADAM17; assay type: biochemical
T6 construct: purchased R&D Systems Inc
T6 sequence (P78536 215-824): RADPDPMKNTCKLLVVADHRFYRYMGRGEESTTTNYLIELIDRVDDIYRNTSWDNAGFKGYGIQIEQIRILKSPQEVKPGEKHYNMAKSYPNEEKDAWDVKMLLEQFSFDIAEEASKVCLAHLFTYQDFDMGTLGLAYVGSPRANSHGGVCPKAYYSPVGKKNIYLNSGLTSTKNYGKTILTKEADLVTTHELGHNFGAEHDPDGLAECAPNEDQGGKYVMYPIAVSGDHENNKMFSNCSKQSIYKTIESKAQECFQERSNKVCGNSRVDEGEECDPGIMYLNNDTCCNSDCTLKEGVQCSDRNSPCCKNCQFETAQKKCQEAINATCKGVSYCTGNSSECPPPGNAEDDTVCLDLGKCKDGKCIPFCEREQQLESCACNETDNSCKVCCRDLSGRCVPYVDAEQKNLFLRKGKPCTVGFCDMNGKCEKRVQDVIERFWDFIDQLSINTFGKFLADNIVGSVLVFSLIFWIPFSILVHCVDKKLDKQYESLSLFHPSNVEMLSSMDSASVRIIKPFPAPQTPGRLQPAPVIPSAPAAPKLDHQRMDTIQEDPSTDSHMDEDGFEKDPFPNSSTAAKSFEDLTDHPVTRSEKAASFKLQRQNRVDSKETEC

staphopain B = target: T7, staphopain B (Staphylococcus aureus, UniProt P0C1S6); assay: Selectivity profile, staphopain B; assay type: biochemical; settings: read-out: inhibition at 0.1 mM, Staphopain B
T7 construct: purchased BioCentrum Ltd
T7 sequence (P0C1S6 220-393): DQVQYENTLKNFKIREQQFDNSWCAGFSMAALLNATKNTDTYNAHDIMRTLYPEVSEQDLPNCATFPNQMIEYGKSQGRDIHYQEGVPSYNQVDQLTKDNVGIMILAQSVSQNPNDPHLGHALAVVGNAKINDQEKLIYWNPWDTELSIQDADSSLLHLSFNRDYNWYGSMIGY
Method: (§1) Inhibitory activity was tested in reaction mixtures (0.1 ml) containing 2% (v/v) DMSO vehicle±compound plus additions as follows. V8 protease: 90 mM MOPS (sodium) buffer pH 7.0, […] calcium chloride, 0.045% Brij 35, 10 μM Mca-Leu-Glu-Val-Asp-Gly-Trp-Lys(Dnp)-amide (Bachem) and V8 (BioCentrum Ltd; 30 ng). Staphopain A and B: 90 mM MOPS (sodium) buffer pH 7.0, 1.8 mM cysteine-HCl (pH-adjusted with NaOH), 0.045% Brij 35, 0.1 mM Z-Phe-Arg-AMC hydrochloride (Bachem) and staphopain A or B (BioCentrum Ltd; 30 ng). Human kallikrein 5: 0.1M sodium phosphate buffer pH 8.0, 0.045% Brij 35, 0.1 mM Boc-Val-Pro-Arg-AMC (Sigma) and recombinant human kallikrein 5 (R&D Systems Inc; 6 ng). Human kallikrein 7: 72 mM Tris-HCl pH 8.0, 0.033% Brij 35, 1.2 mM S-2586 (Chromogenix Instrumentation Laboratory SpA) and recombinant human kallikrein 7 (R&D Systems Inc; 0.6 μg) that had been thermolysin-activated according to the manufacturer's instructions. Human angiotensin-converting enzyme (ACE): 45 mM MES (sodium) buffer pH 6.5, 0.045% Brij 35, 10 μM Mca-[…]Dnp)-OH(R&D Systems Inc) and recombinant human ACE (R&D Systems Inc; 1.3 ng). Human cathepsin D: 0.1M sodium acetate buffer pH 3.5, 0.2M sodium chloride, 0.045% Brij 35, 10 μM Mca-Pro-Leu-Gly-Leu-Dap(Dnp)-Ala-Arg-amide (Bachem) and recombinant human cathepsin D (R&D Systems Inc; 8 ng) activated according to the manufacturer's instructions. […]

V8 protease = target: T8, V8 protease (Staphylococcus aureus, UniProt P0C1U8); assay: Selectivity profile, V8 protease; assay type: biochemical; settings: read-out: inhibition at 0.1 mM, V8 protease
T8 construct: purchased BioCentrum Ltd
T8 sequence (P0C1U8 69-336): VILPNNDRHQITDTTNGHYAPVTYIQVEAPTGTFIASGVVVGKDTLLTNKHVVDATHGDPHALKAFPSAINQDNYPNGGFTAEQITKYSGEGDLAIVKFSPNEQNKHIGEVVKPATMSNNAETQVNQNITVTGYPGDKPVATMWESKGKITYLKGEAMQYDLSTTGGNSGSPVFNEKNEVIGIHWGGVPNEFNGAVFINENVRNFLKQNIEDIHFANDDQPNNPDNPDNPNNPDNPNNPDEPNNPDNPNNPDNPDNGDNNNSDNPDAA
Method: as §1

T1 sequence (P81177 209-509): as the sequence (P81177 209-509) above

Compound `CNC(=O)[C@@H](NC(=O)[C@H](CC(=O)NO)CC(C)C)C(C)(C)C` [Compound 12, (S)—N1-((S)-3,3-dimethyl-1-(methylamino)-1-oxobutan-2-yl)-N4-hydroxy-2-isobutylsuccinamide] has an IC50 [1] of 1.3 µM, an IC50 (human MMP-1) of 2.3 µM and an IC50 (human MMP-2) of 2.7 µM. The IC50 (human MMP-9) was 4.6 µM, the IC50 [2] was 4.3 µM and the “Viable cell counts, Cells/ml” value (S. aureus 8325-4) was 1.3 × 10^9 Cells/ml. For the same compound, the IC50 (recombinant human ADAM17) was 79 µM, the inhibition at 100 µM (staphopain B) was 10% and the inhibition at 100 µM (V8 protease) was 0%.

`CNC(=O)[C@@H](NC(=O)[C@@H](CC(=O)NO)CC(C)C)C(C)(C)C` [Compound 11, (R)—N1-((S)-3,3-dimethyl-1-(methylamino)-1-oxobutan-2-yl)-N4-hydroxy-2-isobutylsuccinamide] was tested, and the IC50 [1] was 1.3 µM, the IC50 (human MMP-1) was 0.0028 µM and the IC50 (human MMP-2) was 0.0019 µM. The IC50 (human MMP-9) was 0.0036 µM, the IC50 [2] was 3.7 µM and the “Viable cell counts, Cells/ml” value (S. aureus 8325-4) was 1.6 × 10^9 Cells/ml. For the same compound, the IC50 (recombinant human ADAM17) was 0.025 µM, the inhibition at 100 µM (staphopain B) was 11% and the inhibition at 100 µM (V8 protease) was 0%.
